Experimental data: ChEMBL document CHEMBL1129281, “Effect of linking bridge modifications on the antipsychotic profile of some phthalimide and isoindolinone derivatives” (J Med Chem, 1996)

How the values were obtained:
[1] = biological target: T1, 5-hydroxytryptamine receptor 1A (Rattus norvegicus, UniProt P19327); experiment: Inhibition of [3H]8-OH-DPAT binding at serotonin 5-hydroxytryptamine 1A receptor from rat hippocampus tissue.; format: tissue-based
T1 sequence (P19327 whole entry): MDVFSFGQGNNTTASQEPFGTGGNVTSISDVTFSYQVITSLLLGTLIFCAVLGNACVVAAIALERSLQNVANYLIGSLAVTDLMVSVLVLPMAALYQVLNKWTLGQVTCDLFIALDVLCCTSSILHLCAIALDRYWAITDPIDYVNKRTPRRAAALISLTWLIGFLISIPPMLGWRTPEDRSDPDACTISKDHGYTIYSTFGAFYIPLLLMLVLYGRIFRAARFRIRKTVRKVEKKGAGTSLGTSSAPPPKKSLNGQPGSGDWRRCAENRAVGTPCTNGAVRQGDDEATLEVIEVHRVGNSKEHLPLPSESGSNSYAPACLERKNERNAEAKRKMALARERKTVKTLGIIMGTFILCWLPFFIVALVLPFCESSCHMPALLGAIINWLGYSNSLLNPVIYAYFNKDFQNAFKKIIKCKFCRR

[2] = biological target: Serotonin 2 (5-HT2) receptor (Rattus norvegicus, UniProt P30994+P08909+P14842); experiment: Inhibition of [3H]ketanserin binding at 5-hydroxytryptamine 2 receptor from rat frontal cortex.
Mus musculus = experiment: In vivo inhibition of apomorphine-induced climbing response in mice.; format: functional

Row | SMILES | IC50 [1] [nM] | IC50 [2] [nM] | ED50 (Mus musculus) [mg/kg]
1 | O=C1c2ccccc2C(=O)N1CCCN1CCN(c2nsc3ccccc23)CC1 | 13 | 6 | > 25
2 | O=C1c2ccccc2CN1CCCCCN1CCN(c2nsc3ccccc23)CC1 | 2.7 | 2.2 | 20
3 | O=C1c2ccccc2C(=O)N1C/C=C/CN1CCN(c2nsc3ccccc23)CC1 | 4.7 | 0.78 | 12.7
4 | O=C1c2ccccc2C(=O)N1CCCCN1CCN(c2nsc3ccccc23)CC1 |  |  | 1.1
5 | O=C(CCCN1CCC(O)(c2ccc(Cl)cc2)CC1)c1ccc(F)cc1 [HALOPERIDOL] |  |  | 2
6 | O=C1c2ccccc2C(=O)N1CC1CC1CN1CCN(c2nsc3ccccc23)CC1 (configuration not stated) | 19 | 4 | 22.9
7 | O=C1c2ccccc2C(=O)N1CCCCCN1CCN(c2nsc3ccccc23)CC1 | 2 | 1.8 | 27
8 | O=C1c2ccccc2C(=O)N1CCOCCN1CCN(c2nsc3ccccc23)CC1 | 54 | 5.4 | > 25
9 | O=C1c2ccccc2CN1C/C=C/CN1CCN(c2nsc3ccccc23)CC1 |  | 1.7 | 17.6
10 | O=C1c2ccccc2C(=O)N1CCN1CCN(c2nsc3ccccc23)CC1 | 54 | 30 | > 25
11 | O=C1c2ccccc2CN1CCN1CCN(c2nsc3ccccc23)CC1 | 40 | 9.8 | > 25
12 | O=C1c2ccccc2CN1CCCN1CCN(c2nsc3ccccc23)CC1 | 390 | 13 | > 25
13 | O=C1c2ccccc2CN1CC#CCN1CCN(c2nsc3ccccc23)CC1 |  | 18 | > 25
14 | O=C1c2ccccc2CN1CCOCCN1CCN(c2nsc3ccccc23)CC1 |  | 1.7 | > 25
15 | O=C1c2ccccc2CN1CCCCN1CCN(c2nsc3ccccc23)CC1 |  |  | 6.8
16 | O=C1c2ccccc2C(=O)N1C/C=C\CN1CCN(c2nsc3ccccc23)CC1 | 24 | 3.2 | > 25
17 | O=C1c2ccccc2C(=O)N1CC#CCN1CCN(c2nsc3ccccc23)CC1 | 420 | 43 | > 25
18 | O=C1c2ccccc2CN1C1CCC(N2CCN(c3nsc4ccccc34)CC2)CC1 (configuration not stated) | 140 | 120 | 11.7
19 | O=C1c2ccccc2CN1C/C=C\CN1CCN(c2nsc3ccccc23)CC1 |  | 5.5 | 13.9
